# Experimental data published in patent US20220378923A1, “BET DEGRADER” (KYOWA KIRIN CO., LTD., priority 2019, published 2022).
# Read-outs that look alike come from different tables or passages of the source.
# How the values were obtained:
# DCAF16 KO SU-DHL-4 cells = test: Inhibitory effect on cell viability using SU-DHL-4 DCAF16 knock out (KO) cell line (Test Example 6); type: cell-based, human; conditions: for Activity Attenuation Ratio: (SU-DHL-4 DCAF16 KO IC50)/(SU-DHL-4 WT IC50); for IC50: DCAF16 KO SU-DHL-4 cells, 72 hours, Cell Counting Kit-8, 50% inhibition of cell viability
# Procedure, shortened: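 SU-DHL-4 DLBCL cells carrying lentiviral Cas9 plus DCAF16-targeting sgRNA (three KO strains; non-targeting control strain), seeded 2000 cells/well, pre-cultured 18–25 h, then given 9-step compound dilutions (0.1% DMSO final) for 72 h at 37° C. Viability read by CCK-8 colorimetric assay.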
# SU-DHL-4 cells = test: Inhibitory effect on cell viability in SU-DHL-4 cell line (Test Example 1); type: cell-based, human; conditions: 72 hours; for IC50: SU-DHL-4 (wild type) cells, calculated using the measurement results of test example 1, read-out: SU-DHL-4 WT IC50; for IC90: SU-DHL-4 cells, Cell Counting Kit-8, concentration showing 90% inhibition of cell viability, read-out: SU-DHL-4 Cell Viability Inhibition Rate IC90
# Procedure, shortened: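 SU-DHL-4 cells were grown at 37° C. under 5% CO2 in RPMI1640 with 10 vol % heat-inactivated FBS plus penicillin/streptomycin, seeded and precultured for 18 to 25 hours, then exposed to test compound at 0.1 vol % DMSO for 72 hours. Viability was read with Cell Counting Kit-8 by absorbance at 450 nm.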
IC50 (DCAF16 KO SU-DHL-4 cells),IC50 (SU-DHL-4 cells),IC90 (SU-DHL-4 cells),IC50 (DCAF16 KO SU-DHL-4 cells; Homo sapiens),IC50 (SU-DHL-4 cells; Homo sapiens),IC90 (SU-DHL-4 cells; Homo sapiens),Compound,Activity Attenuation Ratio (DCAF16 KO SU-DHL-4 cells)
106 nM,0.5 nM,3.09 nM,–,–,–,"CCC(=O)N1c2ccccc2[C@H](Nc2ccc(NC(=O)CCCC(=O)Nc3cccc(Oc4ccc(NS(=O)(=O)CC)cc4-c4cn(C)c(=O)cc4OC)c3)cc2)C[C@@H]1C [Compound 16j, N^1-(3-(4-(Ethylsulfonamide)-2-(4-methoxy-1-methyl-6-oxo-1,6-dihydropyridin-3-yl)phenoxy)phenyl)-N5-(4-(((2S,4R)-2-methyl-1-propionyl-1,2,3,4-tetrahydroquinolin-4-yl)amino)phenyl)glutaramide]",213
–,–,–,208 nM,0.62 nM,1.85 nM,"CCC(=O)N1c2ccccc2[C@H](Nc2ccc(NC(=O)CCCC(=O)Nc3cccc(Oc4ccccc4-c4cn(C)c(=O)cc4OC)c3)cc2)C[C@@H]1C [Compound 16m, N^1-(3-(2-(4-Methoxy-1-methyl-6-oxo-1,6-dihydropyridin-3-yl)phenoxy)phenyl)-N5-(4-(((2S,4R)-2-methyl-1-propionyl-1,2,3,4-tetrahydroquinolin-4-yl)amino)phenyl)glutaramide]",338
–,–,–,2400 nM,24.8 nM,80.3 nM,"CCC(=O)N1c2ccccc2[C@H](Nc2ccc(NC(=O)CCCC(=O)Nc3ccc(C(=O)N4CCC(=O)Nc5ccccc54)cc3)cc2)C[C@@H]1C [Compound 16o, N^1-(4-(((2S,4R)-2-Methyl-1-propionyl-1,2,3,4-tetrahydroquinolin-4-yl)amino)phenyl)-N5-(4-(4-oxo-2,3,4,5-tetra hydro-1H-benzo[b][1,4]diazepine-1-carbonyl)phenyl)glutaramide]",96
925 nM,0.27 nM,0.63 nM,–,–,–,"CCC(=O)N1c2ccccc2[C@H](Nc2ccc(NC(=O)CCCC(=O)NC3CCC(Cn4cc(-c5c(C)noc5C)ccc4=O)CC3)cc2)C[C@@H]1C (stereo partly drawn) [Compound 16p, N^1-((1r,4r)-4-((5-(3,5-Dimethylisoxazol-4-yl)-2-oxopyridin-1(2H)-yl)methyl)cyclohexyl)-N5-(4-(((2S,4R)-2-methyl-1-propionyl-1,2,3,4-tetrahydroquinolin-4-yl)amino)phenyl)glutaramide]",3390
–,–,–,182 nM,0.1 nM,0.16 nM,"CCC(=O)N1c2ccccc2[C@H](Nc2ccc(NC(=O)CCCC(=O)Nc3ccc(Cn4cc(-c5c(C)noc5C)ccc4=O)cc3)cc2)C[C@@H]1C [Compound 17a, N^1-(4-((5-(3,5-Dimethylisoxazol-4-yl)-2-oxopyridin-1(2H)-yl)methyl)phenyl)-N5-(4-(((2S,4R)-2-methyl-1-propionyl-1,2,3,4-tetrahydroquinolin-4-yl)amino)phenyl)glutaramide]",1895
75.7 nM,235 nM,> 10000 nM,–,–,–,"Cc1sc2c(c1C)C(c1ccc(Cl)cc1)=N[C@@H](CC(=O)NCCOCCOCCOCCOCCOCCOCCOCCNC(=O)C[C@@H]1N=C(c3ccc(Cl)cc3)c3c(sc(C)c3C)-n3c(C)nnc31)c1nnc(C)n1-2 [compound 2, reference compound]",0.32

Compound,IC50 (DCAF16 KO SU-DHL-4 cells),IC50 (SU-DHL-4 cells),IC90 (SU-DHL-4 cells),IC50 (DCAF16 KO SU-DHL-4 cells; Homo sapiens),IC50 (SU-DHL-4 cells; Homo sapiens),IC90 (SU-DHL-4 cells; Homo sapiens),Activity Attenuation Ratio (DCAF16 KO SU-DHL-4 cells)
"CCNC(=O)C[C@@H]1N=C(c2ccc(SCCCCSc3ccc(C4=N[C@@H](CC(=O)NCC)c5nnc(C)n5-c5ccc(OC)cc54)cc3)cc2)c2cc(OC)ccc2-n2c(C)nnc21 [compound 1, 2,2′-((4S,4'S)-6,6′-((butane-1,4-diylbis(sulfanediyl))bis(4,1-phenylene))bis(8-methoxy-1-methyl-4H-benzo[f][1,2,4]triazolo[4,3-a][1,4]diazepine-6,4-diyl))bis(N-ethylacetamide), reference compound]",49.2 nM,221 nM,2560 nM,–,–,–,0.23
